The term melting point denotes the temperature, or range, at which the solid turns liquid.

SMILES strings stand for the structures. Starred links: 1 amine or outer side, 2 acyl side, 3 side chain; linkers in the order of their positions; H or OH if unused. Residues, ends and D or L forms follow the SMILES beside them. *: point of attachment. 4Abz = Nc1ccc(C(=O)O)cc1; CO = O=C([*:1])[*:2]; CF3 = FC(F)(F)* A value given as a limit tells only on which side of the number the result lay.

Regarding `CCCCCS(=O)(=O)NC(=O)CCc1cc(C2CC2)nn1Cc1ccc(C(F)(F)F)cc1Cl`, the melting point is 152 to 154 °C.

`Cc1c[nH]c(-c2ccnc(NC(=O)c3ccccc3)c2)n1` displayed a melting point of 133 to 135 °C.

Regarding `CC1(C)CCC2(Cc3ccc(Cl)cc3)OC2C1=O` (stereo not given), the melting point is 69 to 70 °C.

Consider `CCn1cc(-c2ccncn2)cc(Br)c1=O`, for which the melting point lay within 195 to 197 °C. Consider `O=C1CCC(N2C(=O)c3cccc(OCc4ccc(CN5CCN(c6ccc(F)cc6)CC5)cc4)c3C2=O)C(=O)N1` (stereo not given), for which the melting point lay in the range of 135 to 137 °C. Next, `CCOC(=O)n1nc(-c2cc(C(C)(C)C)c(O)c(C(C)(C)C)c2)c2ccc(C)nc21`: 208 to 209 °C.

In turn, `Oc1cccc2c1cc(C1=NCCN1)n2-c1ccccc1` had a melting point above 270 °C.

The molecule `O=[N+]([O-])c1ccc(C(=NO)c2ccc([N+](=O)[O-])cc2)cc1` registered a melting point of 194 °C. As for `COc1cc2c(c(OC)c1OC)-c1cc3c(cc1COC2)OCO3`, the figure is 154 to 156 °C; as for `CCc1[nH]c(=S)n(Nc2cccc(C)c2)c1-c1ccccc1`, 202 to 204 °C. Next, `CCCCCCCCCCCCS(=O)(=O)Nc1ccccc1C(=O)Nc1cc(Cl)c2c(c1O)CN(C)C(=O)N2`: 183 to 187 °C. As for `O=C(O)CSCCCCCCn1nc(-c2ccccc2)c(-c2ccccc2)c1-c1ccccc1`, the figure is 92 to 97 °C; as for `COc1ccc(-c2csc(N)n2)cc1OC1CC2CCC1C2` (stereo not given), 168 to 178 °C.

In turn, `CCCCc1cc(CCCC)n2ncc(Br)c2n1` yielded a melting point of 47 to 48 °C. Next, `C[C@@H](C(N)=O)c1ccc(NS(=O)(=O)c2ccc(Cl)cc2)cc1`: 150 to 153 °C; `O=C(O)CCCc1cc2cc(Cl)ccc2n1S(=O)(=O)c1ccc2c(c1)CCN2`: 203 °C. As for `Cc1ccc(CNC(=O)c2ccc3n2Cc2ccccc2N(C(=O)COc2ccc(Cl)cc2)C3)cc1`, the figure is 174 to 176 °C; as for `C=CCCC(O)=C(C#N)C(=O)Nc1ccc(Cl)cc1`, 138 °C. Next, `Cc1c2c(nc3ccccc13)CCN(S(=O)(=O)c1ccc(Cl)cc1)CC2`: 189 °C; `COc1ccc(NC(=O)c2ccc(F)c(F)c2)cc1NS(=O)(=O)c1cccc([N+](=O)[O-])c1`: 150 to 160 °C; `O=S1(=O)c2ccccc2-n2c(Cl)nnc21`: 218 to 220 °C.

`CC(=O)O[C@@H]1C2=C(OC(C(C)=O)=C[C@@H]2N2CCCCC2=O)SC1(C)C` (relative stereo): the melting point turned out to be 180 °C. As for `CC(=O)NC1CCc2cc3c(cc21)CCC3` (stereo not given), the figure is 257 to 259 °C. For `O=[N+]([O-])c1ccc(O)c(Cl)c1Cl`, the melting point lay in the range of 148 to 150 °C.

Regarding `O=C(O)Cn1c(=O)n2n(c1=O)C(C(=O)O)CCC2` (stereo not given), the melting point is 189 to 192 °C.

`Cc1ccc(-c2ccc(-c3ccccc3)cc2)n1CC[C@H]1C[C@H](O)CC(=O)O1` (relative stereo) showed a melting point of 104 to 107 °C.

In turn, `CN1CCC(c2c[nH]c3ccc(NC(=O)c4ccccn4)nc23)CC1` gave a melting point of 221 to 223 °C. Next, `O=C(Nc1ccc(Sc2c(O)c3c(Cl)cc(Cl)cc3[nH]c2=O)cc1)c1cccnc1`: above 300 °C; `COc1ccc(-n2nc(OC(C)C)cc2-c2ccc(OCCNS(C)(=O)=O)cc2)cn1`: 121 to 122 °C; `COc1ccc(C2CCCC(=O)O2)cc1` (stereo not given): 57.5 to 59.5 °C. For the molecule `O=C(O)COc1c[nH]c(CCl)cc1=O`, the melting point lay within 150 to 155 °C. As for `Cc1oc(-c2ccc(C(F)(F)F)cc2)nc1CCOc1c(Cl)cc(CN(O)C(N)=O)cc1Cl`, the figure is 137 to 139 °C; as for `COCCOc1cc(NC(=O)OC(C)(C)C)c(NC(=O)CC(=O)c2cccc(I)c2)cc1C#Cc1ccccc1`, 172 °C. As for `CC1(C)[C@@H](C(=O)Nc2cc(C(F)(F)F)n[nH]2)[C@@H]1c1ccccc1` (relative stereo), the figure is 68 to 71 °C; as for `CC(C)N(CCN1C(=O)C(=O)c2cc(Br)ccc21)C(C)C`, 91 to 93 °C; as for `COc1ccc(O)c(CNc2ccc(NC(=O)CC(C)(C)C)cc2)c1`, 126 to 129 °C. Regarding `COc1cccc(CNC(=O)c2cc3c(=O)n(Cc4ccc([N+](=O)[O-])nc4)c(=O)n(C)c3s2)c1`, the melting point lay within 213 to 215 °C. Molecule `Cc1cccc(Nc2cc(Cl)nc(SCC(=O)NC3CCCCC3)n2)c1C` gave a melting point of 156 to 158 °C. Next, `O=C1C=CC(=C(c2ccccc2)c2ccccc2)O1`: 110 to 112 °C; `Oc1ccc(Cl)c2c1CCCC2`: 58 to 59 °C; `Cc1ccc2c(c1)C(NC(=O)CCCN1CCN(c3ccc(F)cc3)CC1)c1ccccc1CS2(=O)=O` (stereo not given): 163 to 165 °C. As for `CCc1sc2nc(C(=O)O)cn2c1C`, the figure is 243 to 245 °C. Next, `Cc1[nH]c2ccccc2c1CCN1CCN(C(c2ccc(F)cc2)c2ccc(F)cc2)CC1`: 65 to 73 °C; `Cc1cc2cc(C#N)c(=O)[nH]c2cc1C`: 300 °C. For the molecule `COc1cc(C)c(C(O)c2c(Cl)c(Cl)nc(Cl)c2C(F)(F)F)c(OC)c1OC` (stereo not given), the melting point lay within 131 to 135 °C.

Consider `COC(=O)C=Cc1[nH]c(=O)c2c(ccc3nc(Nc4c(Cl)cccc4Cl)n(C)c32)c1C`, for which the melting point is above 300 °C. Next, `OC(CCc1ccc2ccccc2c1)c1cnc2sc3c(n12)CCCCC3` (stereo not given): 124 to 127 °C; `CC(C)(C)CC(C)(C)c1cc(-c2cc(C(C)(C)CC(C)(C)C)cc(-n3nc4ccccc4n3)c2O)c(O)c(-n2nc3ccccc3n2)c1`: 209 to 211 °C. Next, `Cc1cc(NC(=O)C(C)(C)Sc2ccc(Cl)cc2)c(C)c(C)c1O`: 134 °C; `COC(=O)Nc1ccc(C(=O)N(C)C)c(S(N)(=O)=O)c1`: 75 to 77 °C; `CN1C2CCC1CC(NC(=O)c1cccc3oc(-c4ccccc4)nc13)C2` (stereo not given): 149 to 151 °C. `CCOC(=O)NC(=O)C(C#N)=CNc1cccc(F)c1` registered a melting point of 170 to 171 °C. Next, `CC(C)C[C@H](NC(=O)OCc1ccccc1)C(=O)N[C@@H](Cc1ccccc1)C(=O)CSc1ccccc1`: 105 to 106 °C; `Cc1oc(-c2ccccc2)nc1COc1ccc(COc2ccc(CC(=O)O)cc2)cc1`: 166 to 167 °C; `Cc1ncc2cc(C#N)c(O)nc2n1`: above 200 °C. Next, `O=C1c2ccccc2C(=O)N1Cc1noc(-c2ncn3c2[C@@H]2CCN2C(=O)c2c-3ccc(F)c2Cl)n1`: 292 to 294 °C.

As to `COc1ccc(OC)c2c1CC1OC1C2` (stereo not given), the melting point was 130 to 132 °C. Next, `CC(C)(C)OC(=O)c1ccc(C=NO)cc1`: 113 to 114 °C; `CC(C)Nc1cccnc1N1CCN(C(=O)c2ccc(C(=O)NCCOCCO)cn2)CC1`: 93 to 95 °C. As for `N#Cc1ccc2cc(CCCCCc3cc4ccc(C#N)cc4o3)oc2c1`, the figure is 106 to 107 °C. As for `c1ccc(-c2ccc(CN3Cc4cccn4Cc4ccccc43)cc2)cc1`, the figure is 135 to 137 °C; as for `CCn1c(=O)n(CC)c2cc3c(N4CCN(C(=O)Nc5ccc(Oc6ccccc6)cc5)CC4)nncc3cc21`, 125 to 128 °C; as for `ClCc1coc(Cc2ccccc2)n1`, 31 to 32 °C. On to `COc1ccc2[nH]c(C(=O)c3ccccc3)c(NC(C)=O)c2c1OC`, for which the melting point is 118 to 120 °C.

`O=C(O)CCc1[nH]nc2c1CCCC2`: the melting point fell in the range of 135 to 136 °C. As for `CCCCCCCCCCCCCCCCCCNC(=O)c1ccc(O)cc1`, the figure is 105 °C; as for `Cc1c(O)cccc1C(=O)NC(Cc1ccccc1)C(O)C(=O)N1CSC(C)(C)C1C(=O)NC1CCCc2ccccc21` (stereo not given), 125 to 126 °C. Next, `Nc1cc(=O)n(Cc2ccc(F)cc2Cl)[nH]1`: 192 °C; `O=c1n(CCC#Cc2cccc(CF)n2)nc2ccccn12`: 106 to 107 °C. Next, `CCC(=O)CCC1(C(N)=O)c2ccccc2-c2ccccc21`: 133 to 135 °C; `Nc1ccc2nc(N3CCOCC3)nn2c1`: 165 °C; `CCCC=Cc1c(C(C)C)nc(C(C)C)c(CO)c1-c1ccc(-c2ccccc2)cc1`: 50 to 52 °C. On to `O=C(O)[C@H](CCc1ccccc1)NS(=O)(=O)c1ccc2c(c1)Cc1ccccc1O2`, for which the melting point lay within 138 to 142 °C. As for `COc1ccc(Cl)cc1NC(=O)CN1CCN(CC(=O)N2CC=C(c3cccc(C(F)(F)F)c3)n3ncc(C#N)c32)CC1`, the figure is 166 to 168 °C; as for `CC(C)C/C(=C\F)CN1C(=O)c2ccccc2C1=O`, 57 to 60 °C. Next, `Cc1c(C(=O)O)cccc1S(=O)(=O)CCO`: 160 to 165 °C; `O=C(Nc1cccc(C(=NO)c2ccccc2)c1)c1ccn2c1CSC2c1cccnc1` (single isomer, unassigned; (+)): 130 °C; `CCC(Br)C(=O)c1ccc(OC)c(OC(F)F)c1` (stereo not given): 105 °C.

In the case of `N#Cc1ccc(NC(=O)C(F)(F)C(F)(F)C(F)(F)F)cc1`, the melting point is 116 to 118 °C. Next, `CC(C)c1nc2c(c(-c3ccc(F)cc3)c1CO)CCC2(C)C`: 141 to 143 °C; `CC(C)C(NC(=O)Nc1ccc(C(=O)NCC(=O)O)cc1)C(=O)N1CCCC1C(=O)NC(C(=O)C(F)(F)F)C(C)C` (stereo not drawn) ({Gly-4Abz-CO}-Val-Pro-Val-CF3; configuration not given here): 98 to 128 °C; `Cc1ccc(Br)cc1-n1nc(-c2ccc(O)cc2O)c2ccc(O)cc21`: 88 to 91 °C. `CSc1ccc([N+](=O)[O-])c(C#N)c1` displayed a melting point of 112 to 113 °C. In turn, `Cc1ccc(C)c(C2CC(=O)C(C(=O)c3ccccc3)=C(O)C2)c1` (stereo not given) yielded a melting point of 182 to 185 °C. As for `CCC(C(=O)O)N(C(=O)c1cn(-c2ccc(F)cc2F)nc1C)c1ccc(OCC(C)(C)C)c(C#N)c1` (stereo not given), the figure is 110 °C.

Values taken from a melting point compilation (Tetko et al.; mined from patent text by program, amines drawn as free bases though some values may be those of a salt).
